The values that follow are results of earlier work, collected in US20240226035A1, “Precision Medicine Approach to Treating Parkinson's Disease with a Monoamine Oxidase Inhibitor, an Antioxidant, or Both” (UNIVERSITY OF NORTH TEXAS HEALTH SCIENCE CENTER AT FORT …, priority 2021, published 2024).

For this series the following is noted: DATATOP trial.
The mark [1] stands for this setting: deprenyl 10 mg/day, PD patients.

With `C#CCN(C)[C@H](C)Cc1ccccc1` [deprenyl], the “effect on reducing PD symptoms” value (deprenyl 10 mg/d, after 14 months, trial discontinued and became open-label) is listed as “positive effects”. Further, under setting [1], the “postponing levodopa-related adverse events or extending life” value is “no benefit” and the “time until disability that warranted initiation of levodopa therapy” value was “delayed time until disability that warranted initiation of levodopa therapy”.
